Molecules are shown by their SMILES. Counter-ions that a name gives are not always drawn. Like-named read-outs stand apart in the source and are kept apart here.

Consider 21 molecules from patent EP0109623A1, “Phenyl-propanol amines, their preparation and use” (BASF Aktiengesellschaft, priority 1982, dated 1984).

The target of one assay is T1, Serotonin-Aufnahme (Rattus norvegicus, UniProt P31652).
T1 construct: Durch differentielle Zentrifugation wurden Synaptosomen erhalten; from tissue; host or cells: rat brain cortex synaptosomes
T1 sequence (P31652 whole entry): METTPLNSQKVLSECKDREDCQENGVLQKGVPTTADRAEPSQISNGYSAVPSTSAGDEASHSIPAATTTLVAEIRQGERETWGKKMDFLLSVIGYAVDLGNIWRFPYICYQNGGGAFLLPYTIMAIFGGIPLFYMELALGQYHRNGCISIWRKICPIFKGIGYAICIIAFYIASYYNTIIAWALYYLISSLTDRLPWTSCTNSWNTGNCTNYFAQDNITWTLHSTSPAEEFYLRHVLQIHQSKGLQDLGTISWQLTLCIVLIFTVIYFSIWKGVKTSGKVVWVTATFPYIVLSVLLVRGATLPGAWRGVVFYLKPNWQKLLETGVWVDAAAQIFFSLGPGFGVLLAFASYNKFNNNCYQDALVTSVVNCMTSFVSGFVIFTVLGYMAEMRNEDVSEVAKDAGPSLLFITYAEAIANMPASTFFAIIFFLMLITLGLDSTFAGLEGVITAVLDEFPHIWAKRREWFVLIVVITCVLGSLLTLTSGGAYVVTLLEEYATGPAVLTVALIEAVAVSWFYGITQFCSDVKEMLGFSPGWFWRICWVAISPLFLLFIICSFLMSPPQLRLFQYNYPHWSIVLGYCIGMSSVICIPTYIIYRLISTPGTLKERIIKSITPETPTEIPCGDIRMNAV
As to the kind of experiment: Inhibition of 3H-serotonin uptake in rat brain synaptosomes (cortex). The format is biochemical, Ratte. From the text:
(§1) Als Wirkungsmechanismus einer Gruppe therapeutisch vielfach genutzter Antidepressiva (z.B. tricyclische Antidepressiva) ist eine Hemmung der neuronalen Aufnahme von Transmittersubstanzen (Noradrenalin und/oder Serotonin) anzusehen. Diese Eigenschaft wird in biologischen Testmodellen zur Charakterisierung von potentiellen Antidepressiva verwendet. Es wurde folgende Methodik eingesetzt: • Hemmung der Neurotransmitter-Aufnahme in Rattenhirn-Synaptosomen
(§2) Hippocampus und Cortex aus Rattenhirn wurden präpariert und in 0,32 M Sucrose-Lösung homogenisiert. Durch differentielle Zentrifugation wurden Synaptosomen erhalten, die in Pufferlösung suspendiert wurden. Die Synaptosomen sind in der Lage, aus dem umgebenden Medium zugefügte Neurotransmittersubstanzen (z.B. Noradrenalin oder Serotonin) aktiv aufzunehmen. Dieser Vorgang ist durch Aufnahme-Hemmer konzentrationsabhängig antagonisierbar. Die Synaptosomen wurden mit den Testsubstanzen in verschiedenen Konzentrationen versetzt und anschließend mit ^3H-Noradrenalin (Hippocampus) bzw. ^3H-Serotonin (Cortex) bei 37°C inkubiert. Die Substratkonzentration betrug ca. 10 nM. Nach Stoppen der Aufnahme durch Verdünnen mit eisgekühlter Pufferlösung wurden die Synaptosomen i abzentrifugiert und die ^3H-Aktivität im Sediment gemessen. Der Blindwert wird durch Inkubation bei 0°C ermittelt.
(§3) Aus den bei verschiedenen Inhibitor-Konzentrationen gegen Kontrolle ermittelten Hemmwerten wurde durch lineare Regression nach logit-log-Transformation die mittlere Hemmkonzentration (ICso) berechnet.

The next assay deals with Noradrenalin-Aufnahme (Rattus norvegicus, UniProt Q9WTR4). The experiment in a line: Inhibition of 3H-noradrenaline uptake in rat brain synaptosomes (hippocampus). It is filed as biochemical, Ratte. The settings on record: for absolute Wirkstärke bei der Hemmung der Noradrenalin-Aufnahme: potency relative to Imipramin; for IC50: rat hippocampus synaptosomes, 3H-Noradrenalin ca. 10 nM, 37°C, read-out: Hemmung der Neurotransmitter-Aufnahme in Synaptosomen Noradrenalin IC50.
Noradrenalin-Aufnahme, sequence (Q9WTR4 1-597): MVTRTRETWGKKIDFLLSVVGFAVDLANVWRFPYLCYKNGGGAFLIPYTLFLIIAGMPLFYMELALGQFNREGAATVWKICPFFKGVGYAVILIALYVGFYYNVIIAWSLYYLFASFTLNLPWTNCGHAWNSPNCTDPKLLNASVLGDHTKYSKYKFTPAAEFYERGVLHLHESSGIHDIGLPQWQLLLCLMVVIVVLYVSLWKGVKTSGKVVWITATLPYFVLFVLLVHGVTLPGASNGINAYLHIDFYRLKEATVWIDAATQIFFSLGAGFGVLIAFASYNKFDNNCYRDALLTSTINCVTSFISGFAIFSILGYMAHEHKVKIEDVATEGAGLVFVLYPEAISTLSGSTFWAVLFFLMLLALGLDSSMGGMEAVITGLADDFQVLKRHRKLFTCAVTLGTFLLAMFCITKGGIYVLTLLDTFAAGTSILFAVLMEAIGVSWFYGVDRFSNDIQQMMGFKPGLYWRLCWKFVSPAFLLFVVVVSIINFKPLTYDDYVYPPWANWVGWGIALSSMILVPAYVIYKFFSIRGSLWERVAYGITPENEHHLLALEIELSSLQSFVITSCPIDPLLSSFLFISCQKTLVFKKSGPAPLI
Excerpt: as §1, §2, §3

Setting [1] is: rat cortex synaptosomes, 3H-Serotonin ca. 10 nM, 37°C, read-out: Hemmung der Neurotransmitter-Aufnahme in Synaptosomen Serotonin IC50.

One may read the IC50 as the midpoint of a concentration-inhibition curve. Turning to `CC(=O)OC(c1ccccc1)C(COc1ccccc1)CN(C)C.Cl` (stereo not drawn) [Beispiel 5, 3-Acetoxy-1-dimethylamino-2-phenoxymethyl-3-phenylpropan Hydrochlorid], on Serotonin-Aufnahme, the IC50 is 400 nM. At Noradrenalin-Aufnahme, the “absolute Wirkstärke bei der Hemmung der Noradrenalin-Aufnahme” value was 8 -fach and the IC50 stood at 1.7 nM.
With `CCC(O)(c1ccccc1)C(COc1ccccc1)CN(C)C` (stereo not drawn) [Beispiel 2, 1-Dimethylamino-3-phenyl-2-phenoxymethyl-pentanol-(3) Hydrochlorid], the IC50 came to 25 nM at Serotonin-Aufnahme (setting [1]) and 11 nM at Noradrenalin-Aufnahme.
With `CCCCCCCCC(O)(c1ccccc1)C(COc1ccccc1)CN(C)C` (stereo not drawn) [Beispiel 2.10, 1-Dimethylamino-2-phenoxymethyl-3-phenyl-undecanol-(3)], the half-maximal inhibitory concentration (IC50) on Serotonin-Aufnahme (setting [1]) was 49 nM; on Noradrenalin-Aufnahme, 38 nM.
Take `CN(C)CC(COc1ccccc1)C(O)(c1ccccc1)c1ccccc1` (stereo not drawn) [Beispiel 2.2, 1-Dimethylamino-3,3-diphenyl-2-phenoxymethyl-propanol-(3)]: the IC50 is 200 nM on Serotonin-Aufnahme (setting [1]) and 94 nM at Noradrenalin-Aufnahme.
The matching figures for `CN(C)CC(COc1ccc(Cl)cc1)C(C)(O)c1ccccc1` (stereo not drawn) [Beispiel 2.8, 2-(4-Chlorphenoxymethyl)-1-dimethylamino-3-phenyl-butanol-(3) Hydrochlorid]: 3.8 nM and 160 nM.
For `CCCC(O)(c1ccccc1)C(COc1ccc(Cl)cc1)CN(C)C` (stereo not drawn) [Beispiel 2.6, 2-(4-Chlorphenoxymethyl)-1-dimethylamino-3-phenyl-hexanol-(3) Hydrochlorid], the IC50 at Serotonin-Aufnahme (setting [1]) came out at 3.6 nM; on Noradrenalin-Aufnahme, 200 nM.
For `CCCCCCCCCCCCC(O)(c1ccccc1)C(COc1ccccc1)CN(C)C` (stereo not drawn) [Beispiel 2.11, 1-Dimethylamino-2-phenoxymethyl-3-phenyl-pentadecanol-(3)], in that order: 300 nM and 500 nM.
Take `C=CCOC(c1ccccc1)C(COc1ccccc1)CN(C)C` (stereo not drawn) [Beispiel 6, 3-Allyloxy-1-dimethylamino--2-phenoxymethyl-3-phenyl-propan]: the results for the IC50 against Serotonin-Aufnahme and at Noradrenalin-Aufnahme were 56 nM and 17 nM, respectively.
Regarding `CN(C)CC(COc1ccccc1)C(O)c1ccccc1` (stereo not drawn) [Beispiel 1, 1-Dimethylamino-2-phenoxymethyl-3-phenyl-propanol-(3)], the IC50 at Serotonin-Aufnahme (setting [1]) stood at 190 nM; at Noradrenalin-Aufnahme, 5.2 nM.
For `C=CC(O)(c1ccccc1)C(COc1ccccc1)CN(C)C` (stereo not drawn) [Beispiel 2.12, l-Dimethylamino-2-phenoxymethyl-3-phenyl-pent-4-enol-(3) Hydrochlorid], in that order: 69 nM and 100 nM.
Consider `CN(C)CC(COc1ccc(Cl)cc1)C(O)c1ccccc1` (stereo not drawn) [Beispiel 1.2, 2-(4-Chlorphenoxymethyl)-1-dimethylamino-3-phenyl-propanol-(3)], for which the IC50 on Serotonin-Aufnahme (setting [1]) is 20 nM; on Noradrenalin-Aufnahme it was 180 nM.
Consider `CN(C)CC(CSc1ccccc1)C(O)c1ccccc1` (stereo not drawn) [Beispiel 1.6, 1-Dimethylamino-3-phenyl-2-thiophenoxymethyl-propanol-(3)], for which the concentration for half-maximal inhibition (IC50) at Serotonin-Aufnahme (setting [1]) came out at 65 nM. Moreover, on Noradrenalin-Aufnahme, the “absolute Wirkstärke bei der Hemmung der Noradrenalin-Aufnahme” value is recorded as 8 -fach and the IC50 came out at 1.7 nM.
`COc1ccc(OCC2CN(C)CCC2c2ccccc2)cc1` (stereo not drawn) [Femoxetin, reference compound]: the half-inhibitory concentration (IC50) at Noradrenalin-Aufnahme came to 330 nM.
For the molecule `CN(C)CC(COc1ccc(Br)cc1)C(O)c1ccccc1` (stereo not drawn) [Beispiel 1.4, 2-(4-Bromphenoxymethyl)-1-dimethylamino-3-phenylpropanol-(3) Hydrochlorid], the values for the IC50 on Serotonin-Aufnahme (setting [1]) and at Noradrenalin-Aufnahme were 73 nM and 17 nM, respectively.
The matching figures for `CCC(O)(c1ccccc1)C(COc1ccc(Cl)cc1)CN(C)C` (stereo not drawn) [Beispiel 2.9, 2-(4-Chlorphenoxymethyl)-1-dimethylamino-3-phenyl-pentanol-(3) Hydrochlorid]: 100 nM and 68 nM.
The matching figures for `CCC(O)(c1ccccc1)C(COc1ccc(Cl)cc1)CN(C)C` (stereo not drawn) [Beispiel 2.7, 2-(4-Chlorphenoxymethyl)-1-dimethylamino-3-phenyl-pentanol-(3) Hydrochlorid]: 3.1 nM and 150 nM.
In the case of `CCCC(O)(c1ccccc1)C(COc1ccccc1)CN(C)C` (stereo not drawn) [Beispiel 2.5, 1-Dimethylamino-2-phenoxymethyl-3-phenyl-hexanol-(3) Hydrochlorid], the half-inhibitory concentration (IC50) came to 37 nM at Serotonin-Aufnahme (setting [1]) and 13 nM at Noradrenalin-Aufnahme.
With `CCOC(=O)OC(c1ccccc1)C(COc1ccccc1)CN(C)C` (stereo not drawn) [Beispiel 5.3, 1-Dimethylamino-3-ethoxycarbonyloxy-2-phenoxymethyl-3-phenyl-propan Hydrochlorid], the results for the half-inhibitory concentration (IC50) at Serotonin-Aufnahme and on Noradrenalin-Aufnahme were 300 nM and 20 nM, respectively.
In the case of `CN(C)CC(COc1ccccc1)C(O)c1ccc(F)cc1` (stereo not drawn) [Beispiel 1.3, 1-Dimethylamino-3-(4-fluorphenyl)-2-phenoxymethyl-propanol-(3) Hydrochlorid], the 50% inhibitory concentration (IC50) on Serotonin-Aufnahme (setting [1]) is 490 nM.
For the molecule `CN(C)CC(COc1ccccc1)C(C)(O)c1ccccc1` (stereo not drawn) [Beispiel 2.4, 1-Dimethylamino-2-phenoxymethyl-3-phenyl-butanol-(3) Hydrochlorid], the half-maximal inhibitory concentration (IC50) was determined as 66 nM on Serotonin-Aufnahme (setting [1]) and 36 nM at Noradrenalin-Aufnahme.
Regarding `CN(C)CC(COc1ccc(Cl)cc1)C(O)(c1ccccc1)c1ccccc1` (stereo not drawn) [Beispiel 2.3, 2-(4-Chlorphenoxymethyl)1-dimethylamino-3,3-diphenyl-propanol-(3)], the IC50 on Serotonin-Aufnahme (setting [1]) turned out to be 26 nM; on Noradrenalin-Aufnahme, 94 nM.
